Measurements published in ChEMBL document CHEMBL5331054, “Antibacterial quaternary ammonium agents: Chemical diversity and biological mechanism” (Eur J Med Chem, 2022).

Key:
Staphylococcus aureus [1] = test: Antibacterial activity against Staphylococcus aureus assessed as reduction in bacterial growth inhibition measured after 18 to 24 hrs by micro-broth dilution method; type: functional; conditions: time 18-24 hrs
Staphylococcus aureus [2] = test: Antibiofilm activity against Staphylococcus aureus assessed as reduction in bacterial growth by crystal violet based staining assay; type: functional
Enterococcus faecalis [3] = test: Antibiofilm activity against Enterococcus faecalis assessed as reduction in bacterial growth by crystal violet based staining assay; type: functional
Escherichia coli [4] = test: Antibiofilm activity against Escherichia coli assessed as reduction in bacterial growth by crystal violet based staining assay; type: functional
Pseudomonas aeruginosa [5] = test: Antibiofilm activity against Pseudomonas aeruginosa assessed as reduction in bacterial growth by crystal violet based staining assay; type: functional
Staphylococcus aureus [6] = test: Antimicrobial activity against Staphylococcus aureus assessed as reduction in bacterial growth; type: functional
Enterococcus faecalis [7] = test: Antibacterial activity against Enterococcus faecalis assessed as reduction in bacterial cell growth; type: functional
[8] = test system: Stenotrophomonas maltophilia; test: Antibacterial activity against Stenotrophomonas maltophilia assessed as inhibition of bacterial growth; type: functional
Staphylococcus aureus [9] = test: Antibacterial activity against Staphylococcus aureus assessed as bacterial growth inhibition incubated for 72 hrs by microdilution assay; type: functional, organism-based; conditions: Staphylococcus aureus; time 72 hrs
Enterococcus faecalis [10] = test: Antibacterial activity against Enterococcus faecalis assessed as bacterial growth inhibition incubated for 72 hrs by microdilution method; type: functional
Escherichia coli [11] = test: Antibacterial activity against Escherichia coli assessed as bacterial growth inhibition incubated for 72 hrs by microdilution method; type: functional; conditions: Escherichia coli, 72 h, read-out: MIC
Pseudomonas aeruginosa [12] = test: Antibacterial activity against Pseudomonas aeruginosa assessed as bacterial growth inhibition incubated for 72 hrs by microdilution method; type: functional; conditions: Pseudomonas aeruginosa, 72 h, read-out: MIC
Staphylococcus aureus [13] = test: Antibacterial activity against methicillin-resistant Staphylococcus aureus assessed as bacterial growth inhibition; type: functional
Staphylococcus aureus [14] = test: Antibacterial activity against methicillin- resistant Staphylococcus aureus assessed as bacterial growth inhibition incubated for 24 hrs; type: functional
Staphylococcus aureus [15] = test: Antibacterial activity against Staphylococcus aureus ATCC 25923 assessed as bacterial growth inhibition incubated for 24 hrs by microdilution method; type: functional
[16] = test system: Staphylococcus epidermidis; test: Antibacterial activity against Staphylococcus epidermidis ATCC 12228 assessed as bacterial growth inhibition incubated for 24 hrs by microdilution method; type: functional
Bacillus cereus = test: Antibacterial activity against Bacillus cereus assessed as reduction in microbial growth after 18 hrs by MTT based broth dilution method; type: functional
Staphylococcus aureus [17] = test: Antibacterial activity against Staphylococcus aureus assessed as bacterial growth inhibition measured after 24 hrs by micro-broth dilution method; type: functional
Staphylococcus aureus [18] = test: Antibacterial activity against Staphylococcus aureus […] assessed as reduction in bacterial growth inhibition measured after 24 hrs; type: functional
Escherichia coli [19] = test: Antibacterial activity against Escherichia coli ATCC 25922 assessed as reduction in bacterial growth incubated for 24 hrs by micro-dilution method; type: functional
Staphylococcus aureus [20] = test: Antibacterial activity against Staphylococcus aureus ATCC 4163 assessed as reduction in bacterial growth incubated for 24 hrs by micro-dilution method; type: functional
Pseudomonas aeruginosa [21] = test: Antibacterial activity against Pseudomonas aeruginosa NCTC 6749 assessed as reduction in bacterial growth incubated for 24 hrs by micro-dilution method; type: functional
Vibrio parahaemolyticus = test: Antibacterial activity against Vibrio parahaemolyticus ATCC 17802 assessed as reduction in bacterial growth incubated for 24 hrs by micro-dilution method; type: functional
[22] = test system: Mycobacterium tuberculosis; test: Antimycobacterial activity against Mycobacterium tuberculosis assessed as reduction in mycobacterial growth; type: functional
[23] = test system: Mycobacterium tuberculosis; test: Antibacterial activity against Mycobacterium tuberculosis Erdman assessed as bacterial growth inhibition; type: functional
Staphylococcus aureus [24] = test: Antibacterial activity against Staphylococcus aureus assessed as log reduction in bacterial load measured after 5 mins; type: functional
Escherichia coli [25] = test: Antibacterial activity against Escherichia coli assessed as log reduction in bacterial load measured after 5 mins; type: functional
Escherichia coli [26] = test: Antibacterial activity against Escherichia coli assessed as reduction bacterial cell growth; type: functional
Pseudomonas aeruginosa [27] = test: Antibacterial activity against Pseudomonas aeruginosa assessed as inhibition of bacterial cell growth; type: functional
Staphylococcus aureus [28] = test: Antibacterial activity against Staphylococcus aureus ATCC 25923 assessed as reduction in bacterial growth incubated for 24 hrs by micro-dilution method; type: functional
Pseudomonas aeruginosa [29] = test: Antibacterial activity against Pseudomonas aeruginosa ATCC 9027 assessed as reduction in bacterial growth incubated for 24 hrs by micro-dilution method; type: functional
Staphylococcus aureus [30] = test: Antimicrobial activity against community acquired methicillin-resistant Staphylococcus aureus SH1000; type: functional
Staphylococcus aureus [31] = test: Antibiofilm activity against methicillin-resistant Staphylococcus aureus SH1000 assessed as reduction in bacterial growth; type: functional

## C[N+](C)(C)CCNC(=O)[C@H](Cc1c[nH]c2ccccc12)NC(=O)c1cc(Cl)ccc1NC(=O)c1ccc2ccccc2c1
Staphylococcus aureus [1]
  MIC: 15.6 µM

## CCCCCCCCCCCC[N+](C)(C)CC[N+](C)(C)CC[N+](C)(C)CCCCCCCCCCCC
Staphylococcus aureus [2]
  MIC: < 0.25 µM
Enterococcus faecalis [3]
  MIC: < 0.25 µM
Escherichia coli [4]
  MIC: 0.5 µM
Pseudomonas aeruginosa [5]
  MIC: 1 µM

## CCCCCCCCCCCC[N+](C)(C)CCOc1ccc(OCC[N+](C)(C)CCCCCCCCCCCC)cc1.[Br-].[Br-]
Staphylococcus aureus [6]
  MIC: 1 µg/mL
Enterococcus faecalis [7]
  MIC: 1 µg/mL
[8]
  MIC: 2 µg/mL

## CCCCCCCCCCCC[N+](C)(C)CCCCCCCCCCCC
Staphylococcus aureus [9]
  MIC: 1 µM
Enterococcus faecalis [10]
  MIC: 1 µM
Escherichia coli [11]
  MIC: 8 µM
Pseudomonas aeruginosa [12]
  MIC: 32 µM

## CCCCCCCCCCCC[N+](C)(C)CCCN(C)C
Staphylococcus aureus [13]
  MIC: 8 µM
Staphylococcus aureus [14]
  MIC: 4 µM

## CCCCCCCCCCCCCCOC(=O)[C@H](Cc1ccccc1)[N+](C)(CC)CC
Staphylococcus aureus [15]
  MIC: 3.6 µM
[16]
  MIC: 4.5 µM
Bacillus cereus
  MIC: 5.4 µM

## CCCCCCCCCC[N+](C)(C)Cc1ccc(C[N+](C)(C)CCCCCCCCCC)cc1
Staphylococcus aureus [17]
  MIC: 6.1 µM

## CCOC(=O)c1c[n+](C(C)C)c2cc3c(cc2c1Nc1ccc(OCc2ccccc2)cc1)OCO3
Staphylococcus aureus [18]
  MIC: 3.12 µM

## CCCCCCCCCCCC[N+](C)(C)CCNC(=O)C12CC3CC(C1)CC(C(=O)NCC[N+](C)(C)CCCCCCCCCCCC)(C3)C2
Escherichia coli [19]
  MIC: 9.4 µM
Staphylococcus aureus [20]
  MIC: 2.3 µM
Pseudomonas aeruginosa [21]
  MIC: 2.3 µM
Vibrio parahaemolyticus
  MIC: 0.1 µM

## CCCCCCCCS(=O)(=O)Nc1ccc(-c2ccc(-c3ccccc3)cc2)cc1C(=O)C(=O)NCCC[N+](C)(C)C
Staphylococcus aureus [17]
  MIC: 4 µM

## CCCCCCCCCC[N+](C)(C)CCCCCCCCCC [DIDECYLDIMETHYLAMMONIUM CHLORIDE]
Staphylococcus aureus [13]
  MIC: 4 µM
Staphylococcus aureus [14]
  MIC: 1 µM

## CCCCCCc1ccc[n+](CCOC2C3CC4CC(C3)CC2C4)c1.CS(=O)(=O)[O-] (configuration not stated)
[22]
  MIC: 3.1 µg/mL
[23]
  MIC: 1.6 µg/mL

## CCCCCCCCCC[N+](C)(C)CCOc1ccc(OCC[N+](C)(C)CCCCCCCCCC)cc1.[Br-].[Br-]
Staphylococcus aureus [6]
  MIC: 0.5 µg/mL
Enterococcus faecalis [7]
  MIC: 0.25 µg/mL
[8]
  MIC: 0.5 µg/mL

## CCCCCCCC[N+](C)(C)CCOc1ccc(OCC[N+](C)(C)CCCCCCCC)cc1.[Br-].[Br-]
Staphylococcus aureus [6]
  MIC: 0.5 µg/mL
Enterococcus faecalis [7]
  MIC: 4 µg/mL
[8]
  MIC: 1 µg/mL

## O=C(C[n+]1cc(-c2ccc(Cl)c(Cl)c2)n2c1CCC2)Nc1ccc(Oc2ccccc2)cc1
Staphylococcus aureus [17]
  MIC: 4 µM

## CC1(C)C(=O)N(CCCCCCCCCCCC[n+]2ccccc2)C(=O)N1Cl.[Cl-]
Staphylococcus aureus [24]
  log(activity): 6.62
Escherichia coli [25]
  log(activity): 2.16

## CCCCCCCCCC[n+]1cccc(CN(Cc2ccc[n+](CCCCCCCCCC)c2)Cc2ccc[n+](CCCCCCCCCC)c2)c1
Staphylococcus aureus [13]
  MIC: 0.5 µM
Staphylococcus aureus [6]
  MIC: 0.5 µM
Escherichia coli [26]
  MIC: 1 µM
Pseudomonas aeruginosa [27]
  MIC: 2 µM
Enterococcus faecalis [7]
  MIC: 1 µM

## CC1(C)[C@@H]2CC[C@H](CC[N+](C)(C)CC[C@H]3CC[C@@H]4C[C@H]3C4(C)C)[C@H]1C2.[Cl-]
Staphylococcus aureus [28]
  MIC: 0.625 µg/mL
Escherichia coli [19]
  MIC: 0.625 µg/mL
Pseudomonas aeruginosa [29]
  MIC: 0.625 µg/mL

## CCCCCCCC[N+](C)(C)CC(=O)Nc1ccc(C(=O)/C=C/c2ccccc2F)cc1
Bacillus cereus
  MIC: 2 µM

## C=CC[N+](CCC[N+](C)(C)CCCCCCCCCC)(CCC[N+](C)(C)CCCCCCCCCC)CCC[N+](C)(C)CCCCCCCCCC.[Br-].[Br-].[Br-].[Br-]
Staphylococcus aureus [30]
  MIC: 0.25 µM
Staphylococcus aureus [31]
  MBEC: 25 µM

## CCCCCCCCCCCCCCCC[N+](C)(C)c1ccc(C(c2ccccc2)c2ccc([N+](C)(C)C)cc2)cc1.[I-].[I-] (configuration not stated)
Staphylococcus aureus [13]
  MIC: < 0.25 µg/mL

## CCCCCC[N+](C)(C)CCOc1ccc(OCC[N+](C)(C)CCCCCC)cc1.[Br-].[Br-]
Staphylococcus aureus [6]
  MIC: 32 µg/mL
Enterococcus faecalis [7]
  MIC: 128 µg/mL
[8]
  MIC: 64 µg/mL
